According to patent US20090209525A1, “ENABLING METHODS TO IDENTIFY ALLOSTERIC MODULATORS OF RECEPTOR ACTIVITY” (priority 2006, published 2009):
Residue numbers refer to the chain shown, from its start. Where two headings read alike, the source gives them in different places.

Legend:
[1] = biological target: T1, rat M1 Y381A receptor (Rattus norvegicus, UniProt P08482, Y381A); experiment: R-SAT functional assay, Y381A mutant; type: cell-based; conditions: M1 Y381A; for EC50: read-out: pEC50 (converted)
T1 construct: expressed in transfected cells; host or cells: NIH-3T3
T1 sequence (P08482 1-460 Y381A): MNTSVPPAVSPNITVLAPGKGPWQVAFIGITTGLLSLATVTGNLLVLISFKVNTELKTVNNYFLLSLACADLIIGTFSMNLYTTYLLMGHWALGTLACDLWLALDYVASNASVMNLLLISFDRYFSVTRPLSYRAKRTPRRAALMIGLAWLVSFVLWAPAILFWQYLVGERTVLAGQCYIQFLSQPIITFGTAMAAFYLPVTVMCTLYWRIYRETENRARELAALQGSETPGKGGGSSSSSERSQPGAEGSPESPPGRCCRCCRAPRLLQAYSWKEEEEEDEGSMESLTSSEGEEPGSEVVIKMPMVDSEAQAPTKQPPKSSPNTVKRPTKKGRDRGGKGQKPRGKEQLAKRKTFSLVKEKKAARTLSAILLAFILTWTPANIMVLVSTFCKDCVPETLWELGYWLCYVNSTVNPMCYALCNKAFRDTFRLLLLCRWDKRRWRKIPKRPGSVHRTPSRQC
Protocol: Cells are co-transfected for 18 h with DMEM containing 0.08 micrograms/ml of an expression vector for the expression of the mutant receptor and 0.3 micrograms/ml pSI-Bgal (Promega, Madison Wis.), and 0.5% v/v Polyfect (Qiagen, Valencia Calif.), as recommended by the manufacturer. On day three, the medium is replaced with DMEM containing 1% PSG, 0.5% calf serum, 2% cyto-sf3 (Kemp Biotechnologies, Frederick, Md.), and varying concentrations of the compounds to be tested. Cells are grown in a humidified atmosphere with 5% ambient CO2 for 5 days. The media is removed from the plates, and beta-galactosidase activity is measured by the addition of o-nitrophenyl -d-galactopyranoside in phosphate-buffered saline with 5% Nonidet P-40. […] The following equation is fitted to the data using GraphPad Prism software (San Diego, Calif.):
NIH-3T3 cells were grown in 96-well tissue culture plates to 70 to 80% confluence in Dulbecco's modified essential media (DMEM) supplemented with 100 units/ml penicillin, 100 micrograms/ml streptomycin, 0.3 mg/ml L-glutamine (1% PSG, GIBCO) and 10% calf serum (Sigma-Aldrich). Cells were transfected for 18 h with DMEM containing 0.08 micrograms/ml receptor DNA and 0.3 micrograms/ml pSI-Bgal (Promega, Madison Wis.), 0.5% v/v Polyfect (Qiagen, Valencia Calif.). Medium was replaced with DMEM containing 1% PSG, 0.5% calf serum, 2% cyto-sf3 (Kemp Biotechnologies, Frederick, Md.), and varying concentrations of ligand. […] Cells were grown in a humidified atmosphere with 5% ambient CO2 for 5 days. Medium was removed from the plates, and beta-galactosidase activity was measured by the addition of o-nitrophenyl -d-galactopyranoside in phosphate-buffered saline with 5% Nonidet P-40.
Receptor Selection and Amplification (R-SAT™) Assays: R-SAT™ functional assays were carried out as follows. NIH-3T3 cells were grown in 96-well tissue culture plates to 70 to 80% confluence in Dulbecco's modified essential media (DMEM) supplemented with 100 units/ml penicillin, 100 micrograms/ml streptomycin, 0.3 mg/ml L-glutamine (1% PSG, GIBCO) and 10% calf serum (Sigma-Aldrich). Cells were transfected for 18 h with DMEM containing 0.08 micrograms/ml receptor DNA and 0.3 micrograms/ml pSI-Bgal (Promega, Madison Wis.), 0.5% v/v Polyfect (Qiagen, Valencia Calif.). The transfected cells were frozen away. Cells were thawed and added to 96 well plates with DMEM containing 1% PSG, 0.5% calf serum, 2% cyto-sf3 (Kemp Biotechnologies, Frederick, Md.), and varying concentrations of ligand.
In an effort to further characterize monoamine modulators, we used a panel of mutant muscarininc M1 receptors to analyze the activity and potency of orthosteric modulators and various allosteric modulators at those receptors.

[2] = biological target: T2, rat M1 wild-type receptor (RM1) (Rattus norvegicus, UniProt P08482); experiment: ^3H-NMS radioligand binding, wild-type; conditions: for Shift: Ki divided by Ki for wild-type (reference)
T2 construct: expressed in transfected cells
T2 sequence (P08482 1-460): T1 sequence (P08482 1-460 Y381A) with A381Y
Protocol: Briefly, cell homogenates are prepared from cells transiently or stably expressing wild type or mutant receptors. For transiently transfected cells, HEK cells are transfected with receptor of interest and cells harvested 48 hours post transfection. Cells expressing the receptor, stably or transiently, are harvested using phosphate buffered saline containing 5 mM EDTA, cells centrifuged at low speed and pellet re-suspended in binding buffer. Cell suspension is polytroned and centrifuged at 15,000×g. The pellet is resuspended in binding buffer and centrifugation repeated two more times. The washed cell homogenates are used for the competition binding assays. Competition binding assays are carried out in the presence of fixed amount of cell homogenate, fixed concentration of radioactively labeled orthosteric or allosteric ligand and varying concentrations of the cal under study using appropriate buffer. Incubations are carried out at room temperature for 2 hours. Incubations are terminated by filtration onto GF/B filters using Packard cell harvester followed by 3 washes with ice-cold buffer. Radioactivity retained on the filters is quantitated using Packard Top Count using Microscint 20 scintillation fluid. […] The membranes prepared above are incubated with a labeled ligand in 25 mM sodium phosphate, 5 mM magnesium chloride, 0.01% BSA two hours at room temperature. The binding reaction is stopped by rapid filtration onto GF/B filters. […] The pKd values (pKd=−log Kd) of the labeled ligand are calculated.
Radioligand binding assays were carried out in 25 mM sodium phosphate, 5 mM magnesium chloride, 0.01% BSA. Incubations were for two hours at room temperature, and reactions were stopped by rapid filtration onto GF/B filters.

[3] = Table 4, maximum response relative to xanomeline
[4] = Table 10, maximum response relative to AC-42

Row | Structure (SMILES) | % Eff [1, 3] | EC50 ([1]; Table 4) | EC50 ([1]; Table 10, NA = non-active) | % Eff [1, 4] | IC50 [2] | Shift [2]
1 | CCCCC1CCN(CCCC(=O)c2ccccc2C)CC1 [AC-42, 4-n-butyl-1-[4-(2-methylphenyl)-4-oxo-1-butyl] piperidine hydrogen chloride] | 46% | 316 nM | 3160 nM | 102% | 5010 nM | 1
2 | CCCCC1CCN(CCCN2C(=O)COc3cc(F)ccc32)CC1 [AC-260584, 4-[3-(4-Butyl-piperidin-1-yl)-propyl]-7-fluoro-4H-benzo [1,4]oxazin-3-one] | 60% | 79.4 nM | 63.1 nM | 168% | 1260 nM | 1
3 | Clc1ccc2c(c1)N=C(N1CCNCC1)c1ccccc1N2 [NDMC, 8-chloro-11-(1-piperazinyl)-5H-dibenzo [b,e] [1,4] diazepine] | 95% | 158 nM | 158 nM | 330% | 158 nM | 1
